Values of other authors, collected in patent US20230158030A1, “METHODS AND COMPOSITION FOR TREATMENT OF COVID-19 ILLNESS REQUIRING HOSPITALIZATION” (OHIO STATE INNOVATION FOUNDATION, priority 2020, published 2023).

Columns and labels:
pneumococcal pneumonia = settings: murine pneumococcal pneumonia
[1] = system: CAR-T cell mediated cytokine release syndrome; settings: murine CAR-T cytokine release syndrome model
T-cell function = settings: TLR agonists, PD1 blockade, CAR-T cells
covid-19 = settings: active covid-19 syndrome
[2] = intranasally to mice starting 72 h after lethal infection

Compound	overall survival (influenza A virus; [2])	weight loss (influenza A virus; [2])	inflammatory mediators TNFalpha, IL-1beta, IL-6, KC, and MCP-1 (influenza A virus; mice, lethal influenza A)	morphological changes to the lungs (influenza A virus; mice, lethal influenza A)	antibiotic mediated killing of bacteria (pneumococcal pneumonia)	monocyte and neutrophil influx into the lung, alveolar macrophage activation, neutrophil influx, cytokine release and plasma leakage (pneumococcal pneumonia)	T-cell expansion or killing [1]	survival [1]	enhancement of other T-cell based therapies (T-cell function)	benefit among ill patients (covid-19)
C=CC(=O)N1CCC[C@@H](n2nc(-c3ccc(Oc4ccccc4)cc3)c3c(N)ncnc32)C1 [ibrutinib, 1-[(3R)-3-[4-amino-3-(4-phenoxyphenyl)pyrazolo[3,4-d]pyrimidin-1-yl]piperidin-1-yl]prop-2-en-1-one]	improved overall survival	diminished weight loss	diminished	decreased alveolar hemorrhage, interstitial thickening, and the presence of alveolar exudate	not impaired	negatively influence	not abrogating T-cell expansion or killing	improved survival	enhance other T-cell based therapies	
CCN(CCO)CCCC(C)Nc1ccnc2cc(Cl)ccc12 (stereo not shown) [hydroxychloraquine]										antidotal benefit
